According to the supplement of paper PMC5908809:

Key:
[1] = system: normal NK cells expanded with K562-aAPC; assay: drug sensitivity score (DSS) (DSS units); higher = more sensitive; extreme values may be limits of the assay; settings: 72 h; IL-2 2.5 ng/mL
Method: (§1)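 Drug sensitivity and resistance testing on K562-aAPC-expanded normal NK cells: 5 concentrations (10-fold steps over a 10,000-fold range), 72 h at 37 °C, viability by CellTiter-Glo normalised to DMSO and benzethonium chloride controls; DSS from the fitted curve.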

[2] = system: normal NK cells expanded with K562-aAPC; assay: percent inhibition of viability; higher = more inhibition; settings: 72 h, IL-2 2.5 ng/mL
Method: as §1

[3] = system: normal primary NK cells, pool 2 (3 donors) (IL-2 2.5 ng/mL); assay: drug sensitivity score (DSS) (DSS units); higher = more sensitive; extreme values may be limits of the assay; settings: 72 h
NKL (IL-2 2.5 ng/mL) [4] = assay: as above; settings: 72 h
NK-92 (IL-2 2.5 ng/mL) [5] = assay: as above; settings: 72 h
[6] = system: normal primary NK cells, pool 3 (3 donors) (IL-2 2.5 ng/mL); assay: as above; settings: 72 h
YT (IL-2 2.5 ng/mL) [7] = assay: as above; settings: 72 h
NK-YS (IL-2 2.5 ng/mL) [8] = assay: as above; settings: 72 h
[9] = system: normal primary NK cells, pool 1 (3 donors) (IL-2 2.5 ng/mL); assay: as above; settings: 72 h
IMC-1 (IL-2 20 ng/mL) [10] = assay: as above; settings: 72 h
DERL-7 (IL-2 2.5 ng/mL) [11] = assay: as above; settings: 72 h
[12] = system: normal primary NK cells, pool 1 (3 donors), resting (IL-2 0 ng/mL); assay: as above; settings: 72 h
KHYG-1 (IL-2 2.5 ng/mL) [13] = assay: as above; settings: 72 h
KAI3 (IL-2 2.5 ng/mL) [14] = assay: as above; settings: 72 h
SNK-6 (IL-2 2.5 ng/mL) [15] = assay: as above; settings: 72 h
[16] = system: normal primary NK cells, pool 2 (3 donors) (IL-2 2.5 ng/mL); assay: percent inhibition of viability; higher = more inhibition; settings: 72 h
NKL (IL-2 2.5 ng/mL) [17] = assay: as above; settings: 72 h
NK-92 (IL-2 2.5 ng/mL) [18] = assay: as above; settings: 72 h
[19] = system: normal primary NK cells, pool 3 (3 donors) (IL-2 2.5 ng/mL); assay: as above; settings: 72 h
YT (IL-2 2.5 ng/mL) [20] = assay: as above; settings: 72 h
NK-YS (IL-2 2.5 ng/mL) [21] = assay: as above; settings: 72 h
[22] = system: normal primary NK cells, pool 1 (3 donors) (IL-2 2.5 ng/mL); assay: as above; settings: 72 h
IMC-1 (IL-2 20 ng/mL) [23] = assay: as above; settings: 72 h
DERL-7 (IL-2 2.5 ng/mL) [24] = assay: as above; settings: 72 h
[25] = system: normal primary NK cells, pool 1 (3 donors), resting (IL-2 0 ng/mL); assay: as above; settings: 72 h
KHYG-1 (IL-2 2.5 ng/mL) [26] = assay: as above; settings: 72 h
KAI3 (IL-2 2.5 ng/mL) [27] = assay: as above; settings: 72 h
SNK-6 (IL-2 2.5 ng/mL) [28] = assay: as above; settings: 72 h

CO[C@H]1C[C@@H]2CC[C@@H](C)[C@@](O)(O2)C(=O)C(=O)N2CCCC[C@H]2C(=O)O[C@H]([C@H](C)C[C@@H]2CC[C@@H](O)[C@H](OC)C2)CC(=O)[C@H](C)/C=C(\C)[C@@H](O)[C@@H](OC)C(=O)[C@H](C)C[C@H](C)/C=C/C=C/C=C/1C [Sirolimus] (max concentration tested 100 nM)
Settings | drug sensitivity score
DERL-7 (IL-2 2.5 ng/mL) [11] | 8.02
IMC-1 (IL-2 20 ng/mL) [10] | 0
KAI3 (IL-2 2.5 ng/mL) [14] | 10
KHYG-1 (IL-2 2.5 ng/mL) [13] | 9.94
NK-92 (IL-2 2.5 ng/mL) [5] | 4.93
NK-YS (IL-2 2.5 ng/mL) [8] | 13.8
NKL (IL-2 2.5 ng/mL) [4] | 19.3
SNK-6 (IL-2 2.5 ng/mL) [15] | 13.6
YT (IL-2 2.5 ng/mL) [7] | 10.3
[1] | 1.68
[3] | 3.82
[6] | 0
[9] | 0.01
[12] | 0.29

percent inhibition of viability [%]
Settings | 0.01 nM | 0.1 nM | 1 nM | 10 nM | 100 nM
DERL-7 (IL-2 2.5 ng/mL) [24] | 1.91 | 1.51 | 7.44 | 38.3 | 55.7
IMC-1 (IL-2 20 ng/mL) [23] | -3.21 | 1.18 | -3.68 | -15.7 | -35.8
KAI3 (IL-2 2.5 ng/mL) [27] | -2.33 | -1.67 | 15.9 | 44.7 | 54.9
KHYG-1 (IL-2 2.5 ng/mL) [26] | -2.67 | 2.99 | 5.43 | 47.1 | 73.8
NK-92 (IL-2 2.5 ng/mL) [18] | -4.22 | 6.09 | 10.4 | 22 | 41.1
NK-YS (IL-2 2.5 ng/mL) [21] | -0.35 | 1.64 | 29.4 | 54.6 | 58.5
NKL (IL-2 2.5 ng/mL) [17] | 10.2 | 24.2 | 45.2 | 58.8 | 68.7
SNK-6 (IL-2 2.5 ng/mL) [28] | 7.11 | 11.7 | 26.8 | 58 | 53.6
YT (IL-2 2.5 ng/mL) [20] | -0.6 | 3.68 | 8.62 | 48.9 | 50
[2] | -3.63 | -1.36 | 3.81 | 13.8 | 18.7
[16] | -8.36 | 2 | 15.3 | 16.1 | 24.9
[19] | -9.48 | -6.09 | 3.92 | 6.87 | 10.3
[22] | 0.77 | -8.98 | 3.92 | 5.36 | 11.1
[25] | 1.62 | -12 | 3.7 | 1.9 | 13.7

COc1ccc(-c2ccc3c(N4CCOC[C@@H]4C)nc(N4CCOC[C@@H]4C)nc3n2)cc1CO [AZD8055] (max concentration tested 10000 nM)
Settings | drug sensitivity score
DERL-7 (IL-2 2.5 ng/mL) [11] | 27.5
IMC-1 (IL-2 20 ng/mL) [10] | 0.56
KAI3 (IL-2 2.5 ng/mL) [14] | 20.6
KHYG-1 (IL-2 2.5 ng/mL) [13] | 18.6
NK-92 (IL-2 2.5 ng/mL) [5] | 20.7
NK-YS (IL-2 2.5 ng/mL) [8] | 18.9
NKL (IL-2 2.5 ng/mL) [4] | 25.5
SNK-6 (IL-2 2.5 ng/mL) [15] | 19.1
YT (IL-2 2.5 ng/mL) [7] | 17.3
[1] | 12.8
[3] | 4.67
[6] | 2.13
[9] | 8.04
[12] | 0

percent inhibition of viability [%]
Settings | 1 nM | 10 nM | 100 nM | 1000 nM | 10000 nM
DERL-7 (IL-2 2.5 ng/mL) [24] | 0.54 | 34.1 | 65.8 | 86.8 | 88.3
IMC-1 (IL-2 20 ng/mL) [23] | 1.04 | -9.13 | -36.4 | 1.86 | 16.9
KAI3 (IL-2 2.5 ng/mL) [27] | 16.4 | 25.7 | 50.1 | 58.8 | 60.9
KHYG-1 (IL-2 2.5 ng/mL) [26] | 3.41 | 7.07 | 30.4 | 82.5 | 82.6
NK-92 (IL-2 2.5 ng/mL) [18] | 8.5 | 22.1 | 48.4 | 64.4 | 97.2
NK-YS (IL-2 2.5 ng/mL) [21] | 4.19 | 9.89 | 45.4 | 66.8 | 78.2
NKL (IL-2 2.5 ng/mL) [17] | 9.88 | 42.8 | 61.2 | 63.9 | 61.8
SNK-6 (IL-2 2.5 ng/mL) [28] | -1.89 | 12.4 | 53.8 | 54.5 | 54.5
YT (IL-2 2.5 ng/mL) [20] | 7.4 | 12.9 | 43.8 | 56.6 | 68.3
[2] | 6.73 | 19.9 | 29.3 | 42.1 | 41.3
[16] | -5.63 | 5.36 | 15.5 | 20 | 22.5
[19] | -5.43 | 8.78 | 9.67 | 14.1 | 16.9
[22] | -5.65 | 6.16 | 8.42 | 38.2 | 29.2
[25] | -13.5 | -7.65 | -3.85 | 9.37 | -4.87

Cn1cncc1[C@@](N)(c1ccc(Cl)cc1)c1ccc2c(c1)c(-c1cccc(Cl)c1)cc(=O)n2C [Tipifarnib] (max concentration tested 10000 nM)
Settings | drug sensitivity score
DERL-7 (IL-2 2.5 ng/mL) [11] | 18.6
IMC-1 (IL-2 20 ng/mL) [10] | 7.09
KAI3 (IL-2 2.5 ng/mL) [14] | 19.1
KHYG-1 (IL-2 2.5 ng/mL) [13] | 28.6
NK-92 (IL-2 2.5 ng/mL) [5] | 17.5
NK-YS (IL-2 2.5 ng/mL) [8] | 22.5
NKL (IL-2 2.5 ng/mL) [4] | 14.4
SNK-6 (IL-2 2.5 ng/mL) [15] | 20.7
YT (IL-2 2.5 ng/mL) [7] | 16.2
[1] | 11.9
[3] | 7.58
[6] | 6.12
[9] | 10.5
[12] | 16.3

percent inhibition of viability [%]
Settings | 1 nM | 10 nM | 100 nM | 1000 nM | 10000 nM
DERL-7 (IL-2 2.5 ng/mL) [24] | 1.19 | 15 | 50.5 | 55.8 | 82.4
IMC-1 (IL-2 20 ng/mL) [23] | -0.42 | 7.67 | 12.7 | 14.3 | 84.9
KAI3 (IL-2 2.5 ng/mL) [27] | 6.75 | 19.1 | 47.3 | 58.3 | 85.1
KHYG-1 (IL-2 2.5 ng/mL) [26] | -2.81 | 24 | 75.8 | 83 | 107
NK-92 (IL-2 2.5 ng/mL) [18] | -0.73 | 9.6 | 37.6 | 61.4 | 109
NK-YS (IL-2 2.5 ng/mL) [21] | -3.65 | 20.6 | 59.3 | 66.9 | 90
NKL (IL-2 2.5 ng/mL) [17] | -4.94 | -3.92 | 26.4 | 59.5 | 92.4
SNK-6 (IL-2 2.5 ng/mL) [28] | -6.05 | -1.97 | 53.1 | 67.8 | 79
YT (IL-2 2.5 ng/mL) [20] | 3.74 | 11.7 | 34.3 | 55.4 | 106
[2] | -0.6 | 11.6 | 28.5 | 39.2 | 75.8
[16] | -6.39 | 6.93 | 13.5 | 23.8 | 83.5
[19] | -5.22 | 13.6 | 17.7 | 17.1 | 53.4
[22] | 5.62 | 11.4 | 32.4 | 24 | 96.1
[25] | -0.67 | 17.8 | 34.2 | 56.4 | 93
